Assay results reported in PubChem BioAssay AID256 (DTP/NCI, 2004).
“And” between values parts separate entries of the source, which are not always exact repeats. Equal values may be shown once. Inconclusive results and toxic doses are left out. The calls were made as follows: active = survival T/C of 150% or more; inactive = T/C below 125% in these data.

Tested on: CD2F1 mice, L1210 leukemia ip, survival T/C
Experiment: NCI In Vivo Anticancer Drug Screen. Data for tumor model L1210 Leukemia (intraperitoneal) in CD2F1 (CDF1) mice
Conditions: higher = longer survival
Outline: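 Read-out first: treated-group measurement over vehicle-control measurement, expressed as a ratio. Animals bore a transplanted tumor line and were dosed with compound or vehicle.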

[1] = endpoint: mean survival time, dose: 100.0 mg/kg/injection, schedule: Q01DX009 (ip), vehicle: saline with Tween-80
[2] = endpoint: mean survival time, dose: 100.0 mg/kg/injection, schedule: Q04DX003 (ip), vehicle: saline with Tween-80
[3] = endpoint: mean survival time, dose: 200.0 mg/kg/injection, schedule: Q01DX009 (ip), vehicle: saline with Tween-80
[4] = endpoint: mean survival time, dose: 200.0 mg/kg/injection, schedule: Q04DX003 (ip), vehicle: saline with Tween-80
[5] = endpoint: mean survival time, dose: 400.0 mg/kg/injection, schedule: Q01DX009 (ip), vehicle: saline with Tween-80
[6] = endpoint: mean survival time, dose: 400.0 mg/kg/injection, schedule: Q04DX003 (ip), vehicle: saline with Tween-80
[7] = endpoint: mean survival time, dose: 100.0 mg/kg/injection, schedule: Q01DX001 (ip), vehicle: saline with Tween-80
[8] = endpoint: mean survival time, dose: 200.0 mg/kg/injection, schedule: Q01DX001 (ip), vehicle: saline with Tween-80
[9] = endpoint: mean survival time, dose: 400.0 mg/kg/injection, schedule: Q01DX001 (ip), vehicle: saline with Tween-80
[10] = endpoint: mean survival time, dose: 100.0 mg/kg/injection, schedule: Q04DX002 (ip), vehicle: saline with Tween-80
[11] = endpoint: mean survival time, dose: 200.0 mg/kg/injection, schedule: Q04DX002 (ip), vehicle: saline with Tween-80
[12] = endpoint: mean survival time, dose: 400.0 mg/kg/injection, schedule: Q04DX002 (ip), vehicle: saline with Tween-80
[13] = endpoint: mean survival time, dose: 25.0 mg/kg/injection, schedule: Q04DX002 (ip), vehicle: saline with Tween-80
[14] = endpoint: mean survival time, dose: 50.0 mg/kg/injection, schedule: Q04DX002 (ip), vehicle: saline with Tween-80

Measured: T/C

CCOC/C(O)=C(\C#N)c1ccc(Cl)cc1
inactive: endpoint: mean survival time, dose: 12.5 mg/kg/injection, schedule: Q01DX009 (ip), vehicle: other 94 % of control and 104 % of control | endpoint: mean survival time, dose: 12.5 mg/kg/injection, schedule: Q04DX003 (ip), vehicle: other 104 % of control | endpoint: mean survival time, dose: 25.0 mg/kg/injection, schedule: Q01DX001 (ip), vehicle: other 93 % of control | endpoint: mean survival time, dose: 25.0 mg/kg/injection, schedule: Q01DX009 (ip), vehicle: other 95 % of control and 100 % of control | endpoint: mean survival time, dose: 25.0 mg/kg/injection, schedule: Q04DX002 (ip), vehicle: other 116 % of control and 111 % of control | endpoint: mean survival time, dose: 25.0 mg/kg/injection, schedule: Q04DX003 (ip), vehicle: other 101 % of control | endpoint: mean survival time, dose: 50.0 mg/kg/injection, schedule: Q01DX001 (ip), vehicle: other 100 % of control | endpoint: mean survival time, dose: 50.0 mg/kg/injection, schedule: Q01DX009 (ip), vehicle: other 93 % of control and 95 % of control | endpoint: mean survival time, dose: 50.0 mg/kg/injection, schedule: Q04DX002 (ip), vehicle: other 94 % of control and 99 % of control | endpoint: mean survival time, dose: 50.0 mg/kg/injection, schedule: Q04DX003 (ip), vehicle: other 101 % of control

O=C(O)CNCP(=O)(O)O
inactive: [1] 95 % of control | [2] 105 % of control | [3] 93 % of control | [4] 102 % of control | [5] 89 % of control | [6] 100 % of control

CC1CCCCC1NC(=O)c1ccccc1 (configuration not stated)
inactive: [7] 100 % of control | [8] 98 % of control | [9] 87 % of control

O=S(=O)(O)c1cc(N=Nc2cccc3ccccc23)c(O)c2ncccc12
inactive: [2] 104 % of control | [4] 97 % of control | [6] 106 % of control

O=C(O)c1c(Cl)cccc1Br
inactive: [10] 95 % of control | [11] 95 % of control | [12] 98 % of control

O=c1[nH]c2ccccc2c2c3ccccc3nn12
inactive: [13] 113 % of control | [14] 103 % of control | [10] 96 % of control and 100 % of control | [11] 100 % of control and 106 % of control | [12] 103 % of control

CSc1nc(Cl)c2cc(C)[nH]c2n1
inactive: endpoint: median survival time, dose: 50.0 mg/kg/injection, schedule: Q01DX005 (ip), vehicle: saline 98 % of control | endpoint: median survival time, dose: 100.0 mg/kg/injection, schedule: Q01DX005 (ip), vehicle: saline 100 % of control | endpoint: median survival time, dose: 200.0 mg/kg/injection, schedule: Q01DX005 (ip), vehicle: saline 94 % of control

CC1=CS(=O)(=O)CC(=O)N1
inactive: [2] 103 % of control | [4] 98 % of control | [6] 95 % of control

CC1=C(O)C(=O)[C@@H]2O[C@@H]2C1=O
inactive: endpoint: mean survival time, dose: 0.78 mg/kg/injection, schedule: Q01DX009 (ip), vehicle: saline 98 % of control and 102 % of control | endpoint: mean survival time, dose: 1.56 mg/kg/injection, schedule: Q01DX009 (ip), vehicle: saline 101 % of control and 102 % of control | endpoint: mean survival time, dose: 3.12 mg/kg/injection, schedule: Q01DX009 (ip), vehicle: saline 96 % of control and 107 % of control | endpoint: mean survival time, dose: 6.25 mg/kg/injection, schedule: Q01DX009 (ip), vehicle: saline 98 % of control and 108 % of control | endpoint: mean survival time, dose: 12.5 mg/kg/injection, schedule: Q01DX009 (ip), vehicle: saline 108 % of control | endpoint: mean survival time, dose: 25.0 mg/kg/injection, schedule: Q01DX009 (ip), vehicle: saline 87 % of control

O=c1cc(CCl)oc(Br)c1O
inactive: [13] 98 % of control | [14] 98 % of control | [10] 91 % of control

C/C(=N/Nc1ccc([N+](=O)[O-])cc1[N+](=O)[O-])C1CC2CCC1C2 (configuration not stated)
inactive: [7] 100 % of control | [8] 96 % of control | [9] 96 % of control

O/N=C(/c1ccccc1)c1ccc(O)cc1
inactive: endpoint: median survival time, dose: 25.0 mg/kg/injection, schedule: Q01DX001 (ip), vehicle: saline with Tween-80 104 % of control | endpoint: median survival time, dose: 50.0 mg/kg/injection, schedule: Q01DX001 (ip), vehicle: saline with Tween-80 101 % of control | endpoint: median survival time, dose: 100.0 mg/kg/injection, schedule: Q01DX001 (ip), vehicle: saline with Tween-80 98 % of control | endpoint: median survival time, dose: 200.0 mg/kg/injection, schedule: Q01DX001 (ip), vehicle: saline with Tween-80 104 % of control | endpoint: median survival time, dose: 400.0 mg/kg/injection, schedule: Q01DX001 (ip), vehicle: saline with Tween-80 101 % of control

O=CO.[Co]
inactive: endpoint: mean survival time, dose: 5.0 mg/kg/injection, schedule: Q01DX001 (ip), vehicle: saline 106 % of control | endpoint: mean survival time, dose: 10.0 mg/kg/injection, schedule: Q01DX001 (ip), vehicle: saline 103 % of control | endpoint: mean survival time, dose: 20.0 mg/kg/injection, schedule: Q01DX001 (ip), vehicle: saline 106 % of control | endpoint: mean survival time, dose: 40.0 mg/kg/injection, schedule: Q01DX001 (ip), vehicle: saline 100 % of control

N#CCCNCCNCCC#N
inactive: endpoint: mean survival time, dose: 50.0 mg/kg/injection, schedule: Q01DX009 (ip), vehicle: saline with Tween-80 96 % of control | [1] 104 % of control | [3] 104 % of control

COC(=O)/C(=C\c1ccccc1Cl)C(C)=O
inactive: [2] 104 % of control | [4] 98 % of control | [6] 102 % of control

COc1ccc(CCNC(=S)NC(=O)c2cc(OC)c(OC)c(OC)c2)cc1OC
inactive: [10] 87 % of control | [11] 97 % of control | [12] 102 % of control

CC(=O)OC1COC(n2cnc3c(=S)nc[nH]c32)C(OC(C)=O)C1OC(C)=O (configuration not stated)
inactive: endpoint: mean survival time, dose: 100.0 mg/kg/injection, schedule: Q01DX001 (ip), vehicle: saline 97 % of control | endpoint: mean survival time, dose: 200.0 mg/kg/injection, schedule: Q01DX001 (ip), vehicle: saline 102 % of control | endpoint: mean survival time, dose: 400.0 mg/kg/injection, schedule: Q01DX001 (ip), vehicle: saline 100 % of control

COc1ccc(N2C(=O)C=CC2=O)cc1
inactive: endpoint: mean survival time, dose: 6.25 mg/kg/injection, schedule: Q01DX001 (ip), vehicle: saline with Tween-80 103 % of control | endpoint: mean survival time, dose: 12.5 mg/kg/injection, schedule: Q01DX001 (ip), vehicle: saline with Tween-80 88 % of control | endpoint: mean survival time, dose: 25.0 mg/kg/injection, schedule: Q01DX001 (ip), vehicle: saline with Tween-80 94 % of control and 97 % of control

CC(C)c1nc(-c2ccccc2)c(-c2ccccc2)[nH]1
inactive: [1] 103 % of control | [3] 94 % of control | [5] 100 % of control

c1ccc(CSC2=NCCS2)cc1
inactive: [2] 108 % of control | [4] 98 % of control | [6] 97 % of control

c1ccc(-c2nnc(-c3ccccn3)o2)nc1
inactive: [13] 102 % of control | [14] 98 % of control | [10] 107 % of control

O=C(O)c1cc(-c2ccc(F)cc2)nc2ccc(F)cc12
inactive: [2] 101 % of control | [4] 97 % of control

O=C(SSCCSSCCSSC(=O)N1CCOCC1)N1CCOCC1
inactive: endpoint: mean survival time, dose: 100.0 mg/kg/injection, schedule: Q01DX001 (ip), vehicle: Klucel (hydroxypropylcellulose) (HPC) 93 % of control | endpoint: mean survival time, dose: 200.0 mg/kg/injection, schedule: Q01DX001 (ip), vehicle: Klucel (hydroxypropylcellulose) (HPC) 100 % of control | endpoint: mean survival time, dose: 400.0 mg/kg/injection, schedule: Q01DX001 (ip), vehicle: Klucel (hydroxypropylcellulose) (HPC) 93 % of control

N=Cc1c(O)n(-c2ccccc2)c(=O)n(-c2ccccc2)c1=O
inactive: [2] 94 % of control | [4] 94 % of control | [6] 92 % of control

[Cl][PtH].c1ccc([PH+](c2ccccc2)c2ccccc2)cc1.c1ccc([PH+](c2ccccc2)c2ccccc2)cc1
inactive: [7] 92 % of control | [8] 92 % of control | [9] 95 % of control
